Assay results: PubChem BioAssay (NCI)
“And” between values parts separate entries of the source, which are not always exact repeats. Equal values may be shown once.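 Following 48 hours of exposure in 96-well plates, responses at five concentrations were used to interpolate endpoints linearly. At the GI50, growth is halved. TGI: total growth inhibition.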

Columns and labels:
Assay in all cases: NCI-60 cell line screen, 48 h
A498 renal = system: A498 renal
HOP-62 NSCLC = system: HOP-62 NSCLC
HT29 colon = system: HT29 colon
LXFL 529 NSCLC = system: LXFL 529 NSCLC
SF-268 CNS = system: SF-268 CNS
UACC-257 melanoma = system: UACC-257 melanoma
UACC-62 melanoma = system: UACC-62 melanoma
BT-549 breast = system: BT-549 breast
MDA-MB-435 = system: MDA-MB-435
PC-3 prostate = system: PC-3 prostate

SMILES	TGI (A498 renal)	TGI (HOP-62 NSCLC)	TGI (HT29 colon)	TGI (LXFL 529 NSCLC)	TGI (SF-268 CNS)	TGI (UACC-257 melanoma)	TGI (UACC-62 melanoma)	GI50 (LXFL 529 NSCLC)	TGI (BT-549 breast)	TGI (MDA-MB-435)	TGI (PC-3 prostate)	GI50 (A498 renal)
COc1ccc(N2C(=O)C3c4[nH]c5ccccc5c4C4CCCCC4C3C2=O)cc1 (centres undefined)	54.4 µM	35.8 µM	> 100 µM	84.9 µM	26.4 µM	> 100 µM	33.3 µM					
O=C1NCCS(=O)(=O)N2CCC[C@@H]12	> 100 µM	> 100 µM	> 100 µM	> 100 µM	> 100 µM	> 100 µM	> 100 µM					
O=C1c2ccccc2C(=O)c2[nH]c(Cc3ccc(F)cc3)nc21		44.3 µM	30.3 µM	88.2 µM	66.3 µM	30.4 µM	35.5 µM					
CCCC(=O)[O-].N.N.N.N.N.[Co+3].[O-][Cl+3]([O-])([O-])[O-]	> 100 µM	> 100 µM	> 100 µM	> 100 µM	> 100 µM	> 100 µM	> 100 µM	> 100 µM				
CC1(C)N=C(c2ccccn2)C(c2ccccn2)=NC1(C)C	> 100 µM		> 100 µM	> 100 µM	> 100 µM	> 100 µM	> 100 µM					
COc1ccc(Sc2ccccc2N)cc1	> 100 µM	> 100 µM	50.5 µM	> 100 µM	> 100 µM	> 100 µM	> 100 µM					
C=C1C(=O)OC2CC3(C)OC3CC/C(C)=C/C(OC(C)=O)C12 (centres undefined)	29.9 µM	33.5 µM	13.5 µM	5.92 µM	34.8 µM	22.6 µM	22.9 µM		22.2 µM	25.2 µM	26 µM	
CN1C/C(=C\C=C\c2ccccc2)C(=O)/C(=C/C=C/c2ccccc2)C1	> 100 µM	> 100 µM	> 100 µM	> 100 µM	> 100 µM	> 100 µM	> 100 µM					
NC(CSSCC(N)Cc1ccccc1)Cc1ccccc1 (centres undefined)	> 100 µM	> 100 µM	> 100 µM	> 100 µM	> 100 µM	> 100 µM	44.9 µM					
O=c1oc2ccccc2c(O)c1C(C/C(CCN1CCCC1)=N\Nc1ccccc1)c1ccccc1 (centres undefined)	> 100 µM	> 100 µM	> 100 µM	> 100 µM	> 100 µM	> 100 µM	> 100 µM					
COC(=O)C(NC(=O)c1ccccc1)C(c1ccc(Cl)cc1)P(=O)(OC)OC (centres undefined)	> 100 µM	> 100 µM	> 100 µM	> 100 µM	> 100 µM	> 100 µM	> 100 µM					
C/C=C(/C)C(=O)O[C@H]1[C@H](O)CC(c2ccc3c(c2O)C(O)=C2C(=O)C4(OC)C(O)=C(C(N)=O)C(=O)[C@H](CC(=O)c5ccccc5O)C4CC2[C@@]3(C)OC)O[C@@H]1C (some centres undefined)	2.21 µM and 1.49 µM		1.19 µM and 0.255 µM	0.973 µM	2.91 µM		0.236 µM		0.892 µM	1.64 µM	0.187 µM	0.0198 µM
COc1ccc2c(c1)OC[C@@H]1c3cc(O)c(OCc4ccccc4)cc3O[C@H]21	> 100 µM	> 100 µM	> 100 µM	74.9 µM	> 100 µM	51.4 µM	> 100 µM					
COc1ccc(C(=O)/C=C/c2cc(O)c(O)cc2F)c(OC)c1	26.8 µM	31.1 µM	26 µM		32.3 µM	22.7 µM	23.1 µM		24.4 µM	> 100 µM	25.4 µM	
